How the values were obtained:
[1] = test system: rice (Oryza sative, variety: Koshihikari); experiment: Paddy field treatment (Test Example 3), crop; assay type: in vivo, Oryza sativa; settings: transplanted rice two-leaf period, water surface treatment 10th day after transplantation, 1 kg active ingredient per hectare, evaluated 21st day, lower index = higher safety
Method in brief: (§1)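 Pot test, flooded paddy soil (4 cm water); weeds sown, 2-leaf rice (Koshihikari) transplanted. Day 10 post-transplant: WP dropped on water, 1 kg a.i./ha. Score index at 21 d after application; higher = stronger herbicidal effect.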

Chenopodium album [2] = experiment: Upland field foliage treatment (Test Example 1); assay type: in vivo; settings: foliage treatment 14th day after sowing, wettable powder, 1 kg active ingredient per hectare, evaluated 21st day after application
Method in brief: (§2)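 Read-out is a visual index scored 21 days after treatment. Higher values mean more herbicidal effect on weeds and lower values mean better crop safety. Plants were raised from seed in upland soil and received a leaf-surface spray of 1 kg active ingredient per hectare at 14 days.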

Setaria viridis [3] = experiment: Upland field foliage treatment (Test Example 1); assay type: in vivo; settings: foliage treatment 14th day after sowing, wettable powder, 1 kg active ingredient per hectare, evaluated 21st day after application
Method in brief: as §2

Stellaria media [4] = experiment: Upland field foliage treatment (Test Example 1); assay type: in vivo; settings: foliage treatment 14th day after sowing, wettable powder, 1 kg active ingredient per hectare, evaluated 21st day after application
Method in brief: as §2

Digitaria adscendens [5] = experiment: Upland field foliage treatment (Test Example 1); assay type: in vivo; settings: foliage treatment 14th day after sowing, wettable powder, 1 kg active ingredient per hectare, evaluated 21st day after application
Method in brief: as §2

Ammannia multiflora = experiment: Paddy field treatment (Test Example 3); assay type: in vivo; settings: paddy pot, submerged 4 cm, dropped on water surface 10th day after transplantation, 1 kg active ingredient per hectare, evaluated 21st day
Method in brief: as §1

Monochoria vaginalis = experiment: Paddy field treatment (Test Example 3); assay type: in vivo; settings: paddy pot, submerged 4 cm, dropped on water surface 10th day after transplantation, 1 kg active ingredient per hectare, evaluated 21st day
Method in brief: as §1

Scirpus juncoides = experiment: Paddy field treatment (Test Example 3); assay type: in vivo; settings: paddy pot, submerged 4 cm, dropped on water surface 10th day after transplantation, 1 kg active ingredient per hectare, evaluated 21st day
Method in brief: as §1

soybean (Glycine max) [6] = experiment: Upland soil treatment (Test Example 2), crop; assay type: in vivo; settings: soil surface treatment next day after sowing, 1 kg active ingredient per hectare, evaluated 21st day, lower index = higher safety
Method in brief: (§3)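 Scored 21 days post-application on an index scale where higher values mean greater herbicidal effect on weeds and lower values mean greater crop safety. Treatment was a water-diluted wettable powder sprayed evenly onto the soil surface at 1 kg active ingredient per hectare, one day after seeding.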

[7] = test system: wheat (Triticum aestivum); experiment: Upland soil treatment (Test Example 2), crop; assay type: in vivo; settings: soil surface treatment next day after sowing, 1 kg active ingredient per hectare, evaluated 21st day, lower index = higher safety
Method in brief: as §3

Echinochloa spp. = experiment: Paddy field treatment (Test Example 3); assay type: in vivo, Echinochloa crusgalli; settings: paddy pot, submerged 4 cm, dropped on water surface 10th day after transplantation, 1 kg active ingredient per hectare, evaluated 21st day
Method in brief: as §1

Chenopodium album [8] = experiment: Upland soil treatment (Test Example 2); assay type: in vivo; settings: soil surface treatment next day after sowing, wettable powder, 1 kg active ingredient per hectare, evaluated 21st day after application
Method in brief: as §3

Setaria viridis [9] = experiment: Upland soil treatment (Test Example 2); assay type: in vivo; settings: soil surface treatment next day after sowing, wettable powder, 1 kg active ingredient per hectare, evaluated 21st day after application
Method in brief: as §3

Stellaria media [10] = experiment: Upland soil treatment (Test Example 2); assay type: in vivo; settings: soil surface treatment next day after sowing, wettable powder, 1 kg active ingredient per hectare, evaluated 21st day after application
Method in brief: as §3

Digitaria adscendens [11] = experiment: Upland soil treatment (Test Example 2); assay type: in vivo; settings: soil surface treatment next day after sowing, wettable powder, 1 kg active ingredient per hectare, evaluated 21st day after application
Method in brief: as §3

soybean (Glycine max) [12] = experiment: Upland field foliage treatment (Test Example 1), crop; assay type: in vivo; settings: foliage treatment 14th day after sowing, 1 kg active ingredient per hectare, evaluated 21st day, lower index = higher safety
Method in brief: as §2

[13] = test system: wheat (Triticum aestivum); experiment: as above; assay type: in vivo; settings: foliage treatment 14th day after sowing, 1 kg active ingredient per hectare, evaluated 21st day, lower index = higher safety
Method in brief: as §2

| Structure (SMILES) | Herbicidal activity Oryza sativa [1] | Herbicidal activity Chenopodium album (Chenopodium album [2]) | Herbicidal activity Setaria viridis (Setaria viridis [3]) | Herbicidal activity Stellaria media (Stellaria media [4]) | Herbicidal activity Digitaria adscendens (Digitaria adscendens [5]) | Herbicidal activity Ammannia multiflora (Ammannia multiflora) | Herbicidal activity Monochoria vaginalis (Monochoria vaginalis) | Herbicidal activity Scirpus juncoides (Scirpus juncoides) | Herbicidal activity Glycine max (soybean (Glycine max) [6]) | Herbicidal activity Triticum aestivum [7] | Herbicidal activity Echinochloa spp. (Echinochloa spp.) | Herbicidal activity Chenopodium album (Chenopodium album [8]) | Herbicidal activity Setaria viridis (Setaria viridis [9]) | Herbicidal activity Stellaria media (Stellaria media [10]) | Herbicidal activity Digitaria adscendens (Digitaria adscendens [11]) | Herbicidal activity Glycine max (soybean (Glycine max) [12]) | Herbicidal activity Triticum aestivum [13] |
| --- | --- | --- | --- | --- | --- | --- | --- | --- | --- | --- | --- | --- | --- | --- | --- | --- | --- |
| CCCc1c(Cl)c(-c2cccc(Cl)c2)nn1CC(=COC)C(=O)OC [Compound 40] | 0 (herbicidal effect of not less than 0% by weight and less than 10% by weight) | 4 (herbicidal effect of not less than 70% by weight and less than 90% by weight) | 4 (herbicidal effect of not less than 70% by weight and less than 90% by weight) | 4 (herbicidal effect of not less than 70% by weight and less than 90% by weight) | 4 (herbicidal effect of not less than 70% by weight and less than 90% by weight) | 3 (herbicidal effect of not less than 50% by weight and less than 70% by weight) | 3 (herbicidal effect of not less than 50% by weight and less than 70% by weight) | 3 (herbicidal effect of not less than 50% by weight and less than 70% by weight) | 0 (herbicidal effect of not less than 0% by weight and less than 10% by weight) | 0 (herbicidal effect of not less than 0% by weight and less than 10% by weight) | 3 (herbicidal effect of not less than 50% by weight and less than 70% by weight) | 4 (herbicidal effect of not less than 70% by weight and less than 90% by weight) | 4 (herbicidal effect of not less than 70% by weight and less than 90% by weight) | 4 (herbicidal effect of not less than 70% by weight and less than 90% by weight) | 4 (herbicidal effect of not less than 70% by weight and less than 90% by weight) | 0 (herbicidal effect of not less than 0% by weight and less than 10% by weight) | 0 (herbicidal effect of not less than 0% by weight and less than 10% by weight) |
| COC=C(Cn1nc(-c2ccc(Cl)cc2Cl)c(Cl)c1C)C(=O)OC [Compound 21] | 0 (herbicidal effect of not less than 0% by weight and less than 10% by weight) | 5 (herbicidal effect of not less than 90% by weight) | 4 (herbicidal effect of not less than 70% by weight and less than 90% by weight) | 5 (herbicidal effect of not less than 90% by weight) | 5 (herbicidal effect of not less than 90% by weight) | 5 (herbicidal effect of not less than 90% by weight) | 5 (herbicidal effect of not less than 90% by weight) | 4 (herbicidal effect of not less than 70% by weight and less than 90% by weight) | 0 (herbicidal effect of not less than 0% by weight and less than 10% by weight) | 0 (herbicidal effect of not less than 0% by weight and less than 10% by weight) | 5 (herbicidal effect of not less than 90% by weight) | 4 (herbicidal effect of not less than 70% by weight and less than 90% by weight) | 4 (herbicidal effect of not less than 70% by weight and less than 90% by weight) | 4 (herbicidal effect of not less than 70% by weight and less than 90% by weight) | 4 (herbicidal effect of not less than 70% by weight and less than 90% by weight) | 1 (herbicidal effect of not less than 10% by weight and less than 30% by weight) | 0 (herbicidal effect of not less than 0% by weight and less than 10% by weight) |
| COC=C(Cn1nc(-c2cccc(Cl)c2)cc1SC)C(=O)OC [Compound 38] | 0 (herbicidal effect of not less than 0% by weight and less than 10% by weight) | 5 (herbicidal effect of not less than 90% by weight) | 4 (herbicidal effect of not less than 70% by weight and less than 90% by weight) | 5 (herbicidal effect of not less than 90% by weight) | 4 (herbicidal effect of not less than 70% by weight and less than 90% by weight) | 3 (herbicidal effect of not less than 50% by weight and less than 70% by weight) | 4 (herbicidal effect of not less than 70% by weight and less than 90% by weight) | 3 (herbicidal effect of not less than 50% by weight and less than 70% by weight) | 0 (herbicidal effect of not less than 0% by weight and less than 10% by weight) | 0 (herbicidal effect of not less than 0% by weight and less than 10% by weight) | 3 (herbicidal effect of not less than 50% by weight and less than 70% by weight) | 4 (herbicidal effect of not less than 70% by weight and less than 90% by weight) | 4 (herbicidal effect of not less than 70% by weight and less than 90% by weight) | 4 (herbicidal effect of not less than 70% by weight and less than 90% by weight) | 4 (herbicidal effect of not less than 70% by weight and less than 90% by weight) | 1 (herbicidal effect of not less than 10% by weight and less than 30% by weight) | 0 (herbicidal effect of not less than 0% by weight and less than 10% by weight) |
| COC=C(Cn1cc(C)c(-c2ccccc2)n1)C(=O)OC [Compound 13] | 0 (herbicidal effect of not less than 0% by weight and less than 10% by weight) | 5 (herbicidal effect of not less than 90% by weight) | 5 (herbicidal effect of not less than 90% by weight) | 5 (herbicidal effect of not less than 90% by weight) | 5 (herbicidal effect of not less than 90% by weight) | 5 (herbicidal effect of not less than 90% by weight) | 5 (herbicidal effect of not less than 90% by weight) | 5 (herbicidal effect of not less than 90% by weight) | 0 (herbicidal effect of not less than 0% by weight and less than 10% by weight) | 0 (herbicidal effect of not less than 0% by weight and less than 10% by weight) | 5 (herbicidal effect of not less than 90% by weight) | 5 (herbicidal effect of not less than 90% by weight) | 5 (herbicidal effect of not less than 90% by weight) | 5 (herbicidal effect of not less than 90% by weight) | 5 (herbicidal effect of not less than 90% by weight) | 0 (herbicidal effect of not less than 0% by weight and less than 10% by weight) | 0 (herbicidal effect of not less than 0% by weight and less than 10% by weight) |

— patent US6809065B2, “Herbicide containing substituted pyrazole derivative as active ingredient” (SDS Biotech K.K., priority 2001, dated 2004)
